Source: the supplement of paper PMC6045584
± gives the standard deviation of the averaged measurements.

Legend:
IMATINIB = compound: Cc1ccc(NC(=O)c2ccc(CN3CCN(C)CC3)cc2)cc1Nc1nccc(-c2cccnc2)n1 [IMATINIB]; assay: surviving fraction relative to DMSO-only wells; higher = less growth inhibition; conditions: exposure time: 5 days
Method in brief: (§1)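 Tumour cell lines were seeded in log phase at 250–500 cells per well into 384-well plates. Starting 24 hours later, inhibitors were present continuously for five days at 0.5, 1, 5, 10, 50, 100, 500 and 1000 nM. Surviving fraction, from CellTiter-Glo luminescence, is normalised to the median of DMSO-only wells. Three screens per line were required, with replicate Pearson r >0.7 and median Z' >0.3 for a line to be kept.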

BMN-673 = compound: Cn1ncnc1[C@H]1c2n[nH]c(=O)c3cc(F)cc(c23)N[C@@H]1c1ccc(F)cc1 [BMN-673]; assay: as above; conditions: exposure time: 5 days
Method in brief: as §1

Row | Test System | surviving fraction (IMATINIB; 0.5 nM) | surviving fraction (IMATINIB; 1 nM) | surviving fraction (IMATINIB; 10 nM) | surviving fraction (IMATINIB; 100 nM) | surviving fraction (IMATINIB; 500 nM) | surviving fraction (IMATINIB; 1000 nM) | surviving fraction (BMN-673; 0.5 nM) | surviving fraction (BMN-673; 1 nM) | surviving fraction (BMN-673; 5 nM) | surviving fraction (BMN-673; 10 nM) | surviving fraction (BMN-673; 50 nM) | surviving fraction (BMN-673; 100 nM) | surviving fraction (BMN-673; 500 nM) | surviving fraction (BMN-673; 1000 nM) | surviving fraction (IMATINIB; 5 nM) | surviving fraction (IMATINIB; 50 nM)
1 | BT20 BREAST | 1.21 ± 0.064 | 1.22 ± 0.12 | 1.16 ± 0.062 | 1.14 ± 0.033 | 1.45 ± 0.19 | 1.46 ± 0.035 | 1.22 ± 0.014 | 1.15 ± 0.11 | 1.04 ± 0.034 | 0.971 ± 0.052 | 0.88 ± 0.035 | 0.797 ± 0.074 | 0.673 ± 0.13 | 0.474 ± 0.08 | – | –
2 | MDAMB231 BREAST | 0.9973 ± 0.0088 | 1.03 ± 0.04 | 1.03 ± 0.022 | 1.01 ± 0.027 | 0.968 ± 0.042 | 0.96 ± 0.024 | 0.98 ± 0.029 | 0.972 ± 0.02 | 0.898 ± 0.019 | 0.838 ± 0.022 | 0.711 ± 0.053 | 0.639 ± 0.011 | 0.523 ± 0.021 | 0.454 ± 0.03 | 1.01 ± 0.039 | 1 ± 0.058
3 | SG27 HEADNECK | – | – | 1.13 ± 0.088 | 1.17 ± 0.21 | 1.09 ± 0.18 | 1.14 ± 0.068 | 1.15 ± 0.04 | 1.08 ± 0.11 | 1.06 ± 0.046 | 0.978 ± 0.12 | 1.02 ± 0.17 | 0.927 ± 0.12 | 0.917 ± 0.038 | 0.877 ± 0.16 | 1.02 ± 0.16 | 1.01 ± 0.079
4 | SYO1 SYNOVIAL | 1.03 ± 0.05 | 1.02 ± 0.028 | 0.955 ± 0.031 | 0.898 ± 0.017 | 0.88 ± 0.056 | 0.888 ± 0.023 | 0.855 ± 0.052 | 0.783 ± 0.023 | 0.499 ± 0.0035 | 0.336 ± 0.0059 | 0.168 ± 0.0078 | 0.125 ± 0.0048 | 0.0544 ± 0.0063 | 0.0423 ± 0.00058 | 0.987 ± 0.037 | 0.921 ± 0.035
5 | HUO3N1 BONE | 1.06 ± 0.039 | 0.9677 ± 0.0058 | 1.04 ± 0.027 | – | 0.892 ± 0.038 | 0.878 ± 0.062 | 0.991 ± 0.023 | 0.998 ± 0.043 | 0.945 ± 0.038 | 0.9 ± 0.014 | 0.8017 ± 0.0063 | 0.658 ± 0.015 | 0.448 ± 0.03 | 0.357 ± 0.021 | 1.072 ± 0.0071 | –
6 | H23 LUNG | 1.04 ± 0.049 | 1.01 ± 0.021 | 1.07 ± 0.0035 | 1.13 ± 0.061 | 1.12 ± 0.066 | 1.13 ± 0.065 | 1.07 ± 0.04 | 1.07 ± 0.056 | 1.06 ± 0.054 | 0.937 ± 0.014 | 0.779 ± 0.024 | 0.688 ± 0.055 | 0.507 ± 0.23 | 0.238 ± 0.02 | 1.06 ± 0.031 | 1.08 ± 0.07
7 | ASKA SYNOVIAL | 1.1 ± 0.017 | 1.09 ± 0.03 | 1.08 ± 0.095 | 1.19 ± 0.1 | 1.21 ± 0.095 | 1.07 ± 0.094 | 0.846 ± 0.056 | 0.753 ± 0.041 | 0.625 ± 0.043 | 0.602 ± 0.024 | 0.54 ± 0.062 | 0.427 ± 0.036 | 0.342 ± 0.015 | 0.334 ± 0.016 | 1.23 ± 0.1 | –
8 | PCI30 HEADNECK | – | 0.943 ± 0.017 | 1.08 ± 0.11 | 1.13 ± 0.024 | 1.06 ± 0.067 | 0.981 ± 0.038 | 1.01 ± 0.071 | 1.04 ± 0.092 | 0.91 ± 0.063 | 0.737 ± 0.056 | 0.585 ± 0.025 | 0.495 ± 0.0052 | 1.04 ± 0.025 | 1.08 ± 0.069 | – | 1.13 ± 0.042
9 | T47D BREAST | 1.08 ± 0.042 | 1.05 ± 0.016 | 1.05 ± 0.066 | 1.08 ± 0.036 | 1.1 ± 0.068 | 1.07 ± 0.056 | 1.01 ± 0.04 | 0.975 ± 0.036 | 0.872 ± 0.051 | 0.82 ± 0.026 | 0.714 ± 0.019 | 0.654 ± 0.023 | 0.535 ± 0.017 | 0.455 ± 0.0098 | 1.1 ± 0.02 | 1.13 ± 0.027
10 | COLO320DM LARGE INTESTINE | 1.1 ± 0.17 | 1.14 ± 0.052 | 1.12 ± 0.11 | 1.14 ± 0.098 | 1.15 ± 0.12 | 1.16 ± 0.039 | 1.16 ± 0.049 | 1.1 ± 0.11 | 1.01 ± 0.038 | 0.951 ± 0.04 | 0.781 ± 0.061 | 0.704 ± 0.059 | 0.606 ± 0.0097 | 0.5533 ± 0.0029 | 1.08 ± 0.16 | 1.12 ± 0.12
11 | HCC1806 BREAST | 1.06 ± 0.044 | 1.05 ± 0.093 | 1.16 ± 0.021 | 1.24 ± 0.08 | 0.983 ± 0.077 | 0.956 ± 0.15 | 0.904 ± 0.043 | 0.875 ± 0.021 | 0.451 ± 0.035 | 0.313 ± 0.021 | 0.234 ± 0.0079 | 0.186 ± 0.0061 | 0.171 ± 0.017 | 0.168 ± 0.015 | 1.12 ± 0.07 | 1.15 ± 0.15
12 | HSSYII SYNOVIAL | 1 ± 0.1 | 0.967 ± 0.026 | 1.04 ± 0.049 | 0.998 ± 0.033 | 0.971 ± 0.063 | 0.948 ± 0.024 | 0.867 ± 0.022 | 0.819 ± 0.015 | 0.506 ± 0.026 | 0.34 ± 0.017 | 0.19 ± 0.0066 | 0.132 ± 0.011 | 0.0702 ± 0.0064 | 0.06017 ± 0.00029 | – | 0.966 ± 0.021
13 | MFM223 BREAST | 1.27 ± 0.17 | 1.24 ± 0.041 | 1.19 ± 0.14 | 1.17 ± 0.1 | 1.18 ± 0.055 | 1.15 ± 0.052 | 1.25 ± 0.069 | 1.2 ± 0.073 | 1.07 ± 0.25 | 0.9232 ± 0.0025 | 0.805 ± 0.015 | 0.755 ± 0.047 | 0.734 ± 0.027 | 0.713 ± 0.072 | 1.13 ± 0.057 | 1.19 ± 0.063
14 | MDAMB468 BREAST | 0.997 ± 0.075 | 1.05 ± 0.059 | 1.06 ± 0.066 | 1.18 ± 0.032 | 1.103 ± 0.01 | 1.06 ± 0.06 | 0.993 ± 0.083 | 0.914 ± 0.024 | 0.824 ± 0.1 | 0.728 ± 0.12 | 0.578 ± 0.039 | 0.451 ± 0.053 | 0.305 ± 0.033 | 0.243 ± 0.013 | 1.01 ± 0.02 | 1.09 ± 0.081
15 | HCC78 LUNG | 0.936 ± 0.094 | 1.03 ± 0.16 | – | – | 1.34 ± 0.16 | 1.18 ± 0.091 | 1.06 ± 0.077 | 1 ± 0.097 | 1.04 ± 0.098 | 0.931 ± 0.21 | 0.678 ± 0.19 | 0.47 ± 0.084 | 0.117 ± 0.013 | 0.0383 ± 0.013 | 0.997 ± 0.043 | 1.04 ± 0.072
16 | NCIH441 LUNG | 1.175 ± 0.0068 | 1.14 ± 0.076 | 1.14 ± 0.053 | 1.06 ± 0.082 | – | 1.16 ± 0.15 | 1.11 ± 0.035 | 1.11 ± 0.081 | 1.01 ± 0.039 | 0.872 ± 0.037 | 0.78 ± 0.13 | 0.723 ± 0.1 | 0.584 ± 0.082 | 0.499 ± 0.083 | – | 1.03 ± 0.12
17 | CADOES1 SOFT TISSUE | 0.94 ± 0.11 | 0.897 ± 0.035 | 0.872 ± 0.012 | 0.948 ± 0.02 | 1.03 ± 0.085 | 1.05 ± 0.14 | 0.979 ± 0.076 | 0.942 ± 0.05 | 0.745 ± 0.18 | 0.653 ± 0.094 | 0.378 ± 0.054 | 0.29 ± 0.027 | 0.135 ± 0.033 | 0.073 ± 0.013 | 0.926 ± 0.08 | –
